# Read-outs that look alike come from different tables or passages of the source.
# What was measured:
# Format in all cases: biochemical
# DYRK1A = target: T1, DYRK1A (Homo sapiens, UniProt Q13627); experiment: Inhibition test on activity of DYRK family, mobility shift assay (MSA): DYRK1A
# T1 construct: purchased Carna Biosciences, Inc. 04-130
# Experimental: (§1) [Inhibition Test on Activity of DYRK Family (DYRK1A, DYRK1B, DYRK2, and DYRK3)]
# (§2) The kinase activity was measured by mobility shift assay (MSA) method using QuickScout Screening Assist™ MSA (commercially available kit manufactured by Carna Biosciences, Inc.). The substrate of the kinase reaction used was an FITC-labeled DYRKtide peptide included in the kit. An assay buffer [20 mM HEPES, 0.01% Triton X-100™, 2 mM dithiothreitol, pH 7.5]was used to create a substrate mixture solution with a substrate (4 μM), MgCl2(20 mM), and ATP (DYRK1A: 100 μM; DYRK1B: 200 μM; DYRK2: 40 μM; and DYRK3: 20 μM). In addition, kinases (DYRK1A: manufactured by Carna Biosciences, Inc., Cat. No. 04-130; DYRK1B: manufactured by Carna Biosciences, Inc., Cat. No. 04-131; DYRK2; manufactured by Carna Biosciences, Inc., Cat. No. 04-132; and DYRK3; manufactured by Carna Biosciences, Inc., Cat. No. 04-133) were diluted with the assay buffer to prepare enzyme solutions (DYRK1A: 0.2 ng/μL; DYRK1B: 0.08 ng/μL; DYRK2: 0.04 ng/μL; and DYRK3: 0.25 ng/μL). The 10 mM solution of the test compound in DMSO was further diluted with DMSO to 10 levels of the concentration (0.00003 mM, 0.0001 mM, 0.0003 mM, 0.001 mM, 0.003 mM, 0.01 mM, 0.03 mM, 0.1 mM, 0.3 mM, and 1 mM), each of which was subjected to 25-fold dilution with the assay buffer to obtain a drug solution (4% DMSO solution). 5 μL of the drug solution or a control solution (4% DMSO-assay buffer), 5 μL of the substrate mixture solution, and 10 μL of the enzyme solution were mixed in the wells of a polypropylene 384-well plate and allowed to react at room temperature for 1 hour, and then the reaction was quenched by adding 60 μL of the termination buffer included in the kit. Subsequently, the quantities of the substrates (S) and the phosphorylated substrate (P) in the reaction solution were measured using LabChip EZ Reader II system (manufactured by Caliper Life Sciences) according to the protocol of the assay kit.
# (§3) The heights of the peaks of the “substrate” and the “phosphorylated substrate” were expressed as S and P, respectively, and a blank containing the assay buffer instead of the enzyme solution was also measured.
# (§4) The inhibition rate (%) of the test compound was calculated according to the following equation:
# (§5) Inhibition rate (%)=(1−(C−A)/(B−A))×100 • wherein, A, B, and C represent P/(P+S) of the blank well, P/(P+S) of the control solution well, and P/(P+S) of the compound-containing well, respectively.
# (§6) The IC50 value was calculated via a regression analysis of the inhibition rate and the test compound concentration (logarithmic value).
# DYRK3 = target: T2, DYRK3 (Homo sapiens, UniProt O43781); experiment: Inhibition test on activity of DYRK family, mobility shift assay (MSA): DYRK3
# T2 construct: purchased Carna Biosciences, Inc. 04-133
# T2 sequence (O43781 1-568 isoform O43781-2): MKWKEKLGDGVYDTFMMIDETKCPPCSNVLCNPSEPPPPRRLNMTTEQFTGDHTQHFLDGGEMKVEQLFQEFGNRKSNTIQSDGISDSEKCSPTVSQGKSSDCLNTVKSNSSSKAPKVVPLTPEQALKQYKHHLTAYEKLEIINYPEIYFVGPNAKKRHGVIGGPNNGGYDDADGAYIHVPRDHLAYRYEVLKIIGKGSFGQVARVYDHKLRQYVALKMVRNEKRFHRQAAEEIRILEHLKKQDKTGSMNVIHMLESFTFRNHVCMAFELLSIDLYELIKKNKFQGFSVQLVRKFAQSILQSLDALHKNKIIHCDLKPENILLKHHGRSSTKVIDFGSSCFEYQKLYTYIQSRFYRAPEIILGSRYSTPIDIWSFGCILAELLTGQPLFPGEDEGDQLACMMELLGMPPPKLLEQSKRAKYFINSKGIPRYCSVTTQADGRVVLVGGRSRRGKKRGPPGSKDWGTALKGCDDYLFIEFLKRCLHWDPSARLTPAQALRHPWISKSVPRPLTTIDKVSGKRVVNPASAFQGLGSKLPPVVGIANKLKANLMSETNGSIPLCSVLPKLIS
# Experimental: as §1, §2, §3, §4, §5, §6
# (§7) The inhibiting activities of representative compounds of the present invention are shown against DYRK1A, DYRK1B, DYRK2, and DYRK3 in Tables.
# DYRK2 = target: T3, DYRK2 (Homo sapiens, UniProt Q92630); experiment: Inhibition test on activity of DYRK family, mobility shift assay (MSA): DYRK2
# T3 construct: purchased Carna Biosciences, Inc. 04-132
# T3 sequence (Q92630 74-601 limits assumed): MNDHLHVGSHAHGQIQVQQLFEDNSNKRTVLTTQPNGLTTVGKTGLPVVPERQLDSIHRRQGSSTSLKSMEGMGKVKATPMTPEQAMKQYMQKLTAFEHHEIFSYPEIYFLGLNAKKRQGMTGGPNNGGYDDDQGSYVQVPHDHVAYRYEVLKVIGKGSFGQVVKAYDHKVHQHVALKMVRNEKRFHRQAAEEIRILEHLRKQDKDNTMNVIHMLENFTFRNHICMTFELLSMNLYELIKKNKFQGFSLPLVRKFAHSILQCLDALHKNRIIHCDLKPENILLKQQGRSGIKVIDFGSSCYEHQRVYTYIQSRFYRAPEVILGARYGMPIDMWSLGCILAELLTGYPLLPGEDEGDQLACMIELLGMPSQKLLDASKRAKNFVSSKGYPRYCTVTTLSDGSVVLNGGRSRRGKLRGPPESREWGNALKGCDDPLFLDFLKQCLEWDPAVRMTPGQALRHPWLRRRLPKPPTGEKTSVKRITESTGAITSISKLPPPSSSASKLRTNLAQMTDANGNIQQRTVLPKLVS
# Experimental: as §1, §2, §3, §4, §5, §6, §7
# [1] = MSA, FITC-labeled DYRKtide peptide, ATP 100 μM, read-out: Inhibitory activity DYRK 1A (IC50 class)
# [2] = MSA, FITC-labeled DYRKtide peptide, ATP 20 μM, read-out: Inhibitory activity DYRK 3 (IC50 class)
# [3] = MSA, FITC-labeled DYRKtide peptide, ATP 40 μM, read-out: Inhibitory activity DYRK 2 (IC50 class)
# [4] = read-out: Inhibitory activity DYRK 1A
# [5] = read-out: Inhibitory activity DYRK 3
# [6] = read-out: Inhibitory activity DYRK 2
IC50 (DYRK1A; [1]),IC50 (DYRK3; [2]),IC50 (DYRK2; [3]),IC50 (DYRK1A; [4]),IC50 (DYRK3; [5]),IC50 (DYRK2; [6]),SMILES
0.01 to 0.1 µM,≥ 1 µM,≥ 1 µM,–,–,–,"CN1CCC[C@@H]2NC(=O)N(c3nc4c5c(ccc4s3)OCC5)[C@@H]2C1 (relative stereo) [Example 17, cis-3-(7,8-dihydrofuro[3,2-e][1,3]benzothiazol-2-yl)-5-methyloctahydroimidazo[4,5-c]azepin-2(1H)-one]"
0.1 to 1 µM,> 1 µM,> 1 µM,–,–,–,"CC(=O)N1CC[C@@H]2NC(=O)N(c3nc4c5c(ccc4s3)OCC5)[C@@H]2C1 (relative stereo) [Example 20, cis-5-Acetyl-3-(7,8-dihydrofuro[3,2-e][1,3]benzothiazol-2-yl) octahydro-2H-imidazo[4,5-c]pyridin-2-one]"
< 0.01 µM,≥ 1 µM,≥ 1 µM,–,–,–,"O=C1N[C@@H]2CCN(C3CC3)C[C@@H]2N1c1nc2c3c(ccc2s1)OCCO3 (relative stereo) [Example 31, cis-5-Cyclopropyl-3-(7,8-dihydro[1,4]dioxino[2,3-e][1,3]benzothiazol-2-yl)octahydro-2H-imidazo[4,5-c]pyridin-2-one]"
0.1 to 1 µM,≥ 1 µM,≥ 1 µM,–,–,–,"O=C1N[C@@H]2CCN(C3CC3)C[C@@H]2N1c1nc2c3c(ccc2s1)OCCO3 (single isomer, unassigned) [Example 33]"
≥ 1 µM,≥ 1 µM,≥ 1 µM,–,–,–,"O=C1N[C@@H]2CCN(C3CC3)C[C@@H]2N1c1nc2c3c(ccc2s1)OCO3 (single isomer, unassigned) [Example 35]"
–,–,–,≥ 1 µM,≥ 1 µM,≥ 1 µM,"O=C1N[C@@H]2CCN(C3CC3)C[C@@H]2N1c1nc2c3c(ccc2s1)OCC3 (single isomer, unassigned) [Example 109]"
–,–,–,< 0.01 µM,≥ 1 µM,≥ 1 µM,"O=C1N[C@H]2CCN(C3CC3)C[C@H]2N1c1nc2c3c(ccc2s1)OCC3 (single isomer, unassigned) [Example 110]"
–,–,–,0.1 to 1 µM,≥ 1 µM,≥ 1 µM,"N#CCN1CC[C@H]2NC(=O)N(c3nc4c5c(ccc4s3)OCC5)[C@H]2C1 (single isomer, unassigned) [Example 111]"
–,–,–,< 0.01 µM,0.1 to 1 µM,≥ 1 µM,"N#CCN1CC[C@@H]2NC(=O)N(c3nc4c5c(ccc4s3)OCC5)[C@@H]2C1 (single isomer, unassigned) [Example 112]"
–,–,–,< 0.01 µM,0.1 to 1 µM,0.1 to 1 µM,"C#CCN1CC[C@@H]2NC(=O)N(c3nc4c5c(ccc4s3)OCC5)[C@@H]2C1 (single isomer, unassigned) [Example 114]"
0.01 to 0.1 µM,0.01 to 0.1 µM,0.1 to 1 µM,–,–,–,O=C1NC2CNCCC2N1c1nc2c3c(ccc2s1)OCC3 (stereo not drawn) [Example 2]
0.1 to 1 µM,0.1 to 1 µM,≥ 1 µM,–,–,–,O=C1N[C@H]2CCCNC[C@H]2N1c1nc2c3c(ccc2s1)OCC3 [Example 4]
0.01 to 0.1 µM,0.1 to 1 µM,0.1 to 1 µM,–,–,–,O=C1N[C@H]2CNCCC[C@H]2N1c1nc2c3c(ccc2s1)OCC3 [Example 5]
0.1 to 1 µM,≥ 1 µM,≥ 1 µM,–,–,–,COCCN1CCC2C(C1)NC(=O)N2c1nc2c3c(ccc2s1)OCC3 (stereo not drawn) [Example 10]
0.01 to 0.1 µM,0.1 to 1 µM,0.1 to 1 µM,–,–,–,CCN1CCC2C(C1)NC(=O)N2c1nc2c3c(ccc2s1)OCC3 (stereo not drawn) [Example 12]
0.01 to 0.1 µM,≥ 1 µM,≥ 1 µM,–,–,–,O=C1NC2CCN(CCO)CC2N1c1nc2c3c(ccc2s1)OCC3 (stereo not drawn) [Example 13]
0.1 to 1 µM,≥ 1 µM,≥ 1 µM,–,–,–,CC(C)N1CC2NC(=O)N(c3nc4c5c(ccc4s3)OCC5)C2C1 (stereo not drawn) [Example 16]
0.01 to 0.1 µM,0.1 to 1 µM,0.1 to 1 µM,–,–,–,CN1CCC[C@@H]2[C@H](C1)NC(=O)N2c1nc2c3c(ccc2s1)OCC3 [Example 18]
